Laboratory results as given in patent US20260083722A1, “BIFUNCTIONAL DEGRADERS COMPRISING ELECTROPHILIC PROTACS THAT ENGAGE DCAF1 AND PHARMACEUTICAL COMPOSITIONS COMPRISING THE SAME” (THE SCRIPPS RESEARCH INSTITUTE, priority 2022, published 2026).

Molecular target: T1, HA-FKBP12 (Homo sapiens, UniProt P62942)
T1 construct: expressed in transfected cells; host or cells: HEK293T
Assay: HA-FKBP12 abundance by Western blotting in transfected HEK293T cells
Format: cell-based
Details: for time after treatment until evidence of HA-FKBP12 degradation: 2 μM each, FLAG-DCAF1-transfected cells; for lowest concentration with evidence of FKBP12 degradation: HEK293T co-expressing HA-FKBP12 and FLAG-DCAF1; for degradation of FKBP12: cells expressing DCAF1-C1113A mutant; for hook effect in HA-FKBP12 degradation: emerging at 5 μM
From the text: (A) Left, western blots showing concentration-dependent effects of YT47R (upper) and YT41R (lower) on FKBP12 abundance in HEK293T cells expressing HA-FBKP12 with or without co-expression of FLAG-DCAF1. Right, quantification of HA-FKBP12 abundance in the indicated experimental groups. (B) Left, western blots showing effects of YT47R versus YT47S (upper) and YT41R versus YT41S (lower) on FKBP12 abundance in HEK293T cells co-expressing HA-FBKP12 and FLAG-DCAF1. Right, quantification of HA-FKBP12 abundance in the indicated experimental groups. (C) Western blots showing effects of YT47R (left blots) and YT41R (right blots) on FKBP12 abundance in HEK293T cells co-expressing HA-FBKP12 and either FLAG-DCAF1-WT or FLAG-DCAF1-C1113A mutant. Quantification of HA-FKBP12 abundance in the indicated experimental groups is shown in the adjacent bar graphs. For (A-C), FKBP12 abundance was determined at 24 h post-treatment with compounds, and data are mean values±SEM for three independent experiments. Statistical significance was calculated with unpaired two-tailed Student's t-tests comparing YT41R/YT47R- and DMSO-treated cells. ***P<0.001, ****P<0.0001.
(A) Left, western blots showing effects of proteasome (MG132) and Neddylation (MLN4924) inhibitors (1 h pre-treatment) on YT47R- and YT41R-dependent degradation of FKBP12 in HEK293T cells co-expressing HA-FBKP12 and FLAG-DCAF1. FKBP12 abundance was determined at 24 h post-treatment with YT47R or YT41R. Right, quantification of HA-FKBP12 abundance in the indicated experimental groups. (B) Left, western blots showing effects of the FKBP12 ligand SLF (20 μM) or DCAF1 ligand MY-11B (1 h pre-treatment with 20 μM SLF or 5 μM MY-11B) on YT47R- and YT41R-dependent degradation of FKBP12 in HEK293T cells co-expressing HA-FBKP12 and FLAG-DCAF1. FKBP12 abundance was determined at 24 h post-treatment with YT47R or YT41R. Right, quantification of HA-FKBP12 abundance in the indicated experimental groups. (C) Left, western blots showing effects of MY-11A or MY-11B (5 μM, 1 h pre-treatment) on YT47R- and YT41R-dependent degradation of FKBP12 in HEK293T cells co-expressing HA-FBKP12 and FLAG-DCAF1. FKBP12 abundance was determined at 24 h post-treatment with YT47R or YT41R. Right, quantification of HA-FKBP12 abundance in the indicated experimental groups. For (A-C), data are mean values±SEM for three-five independent experiments. Statistical significance was calculated with unpaired two-tailed Student's t-tests comparing YT41R/YT47R- and DMSO-treated cells. ****P<0.0001.
Figure S3. Concentration-dependent degradation of FKBP12 by DCAF1-directed electrophilic PROTACs. Top, western blots showing concentration-dependent effects of YT47R and YT41R on FKBP12 abundance in HEK293T cells co-expressing HA-FBKP12 and FLAG-DCAF1. Data are mean values±SEM for four independent experiments. Statistical significance was calculated with unpaired two-tailed Student's t-tests comparing YT41R/YT47R- and DMSO-treated cells. *P<0.1, **P<0.01, ***P<0.001, ****P<0.0001.
Figure S4. Time-dependent degradation of FKBP12 by DCAF1-directed electrophilic PROTACs. Top, western blots showing time-dependent effects of YT47R and YT41R (2 μM each) on FKBP12 abundance in HEK293T cells co-expressing HA-FBKP12 and FLAG-DCAF1. Data are mean values±SEM for four independent experiments. Statistical significance was calculated with unpaired two-tailed Student's t-tests comparing YT41R/YT47R- and DMSO-treated cells. ****P<0.0001.
We next treated HEK293T cells co-transfected with FLAG epitope-tagged full length DCAF1 (a.a.'s 1-1507) and HA (hemagglutinin) epitope-tagged FKBP12 with a concentration range of YT41R or YT47R and, after 24 h, measured HA-FKBP12 abundance by Western blotting.

[1] = HEK293T cells transfected only with HA-FKBP12, 24 h
[2] = HEK293T co-transfected with FLAG-DCAF1 and HA-FKBP12, 24 h

T1 sequence (P62942 whole entry): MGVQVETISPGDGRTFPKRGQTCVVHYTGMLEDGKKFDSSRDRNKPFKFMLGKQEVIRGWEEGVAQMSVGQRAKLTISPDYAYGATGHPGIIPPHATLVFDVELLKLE

Row | SMILES | time after treatment until evidence of HA-FKBP12 degradation | degradation of HA-FKBP12 [1] | lowest concentration with evidence of FKBP12 degradation | degradation of HA-FKBP12 [2] | degradation of FKBP12 | hook effect in HA-FKBP12 degradation
1 | C=CC(=O)C1C[C@H](c2ccc(C(=O)NCCOCCOCCNC(=O)COc3cccc([C@@H](CCc4ccc(OC)c(OC)c4)OC(=O)[C@@H]4CCCCN4C(=O)C(=O)C(C)(C)CC)c3)cc2)[C@@H]1C(=O)Nc1cccc2cccnc12 (stereo partly drawn) [YT41R] | ~24 h | not | 0.25 µM | Robust concentration-dependent degradation | did not promote the degradation | possible modest hook effect
2 | C=CC(=O)N1C[C@H](c2ccc(C(=O)NCCOCCOCCOCCNC(=O)COc3cccc([C@@H](CCc4ccc(OC)c(OC)c4)OC(=O)[C@@H]4CCCCN4C(=O)C(=O)C(C)(C)CC)c3)cc2)[C@@H]1C(=O)Nc1cccc2cccnc12 [YT47R] | ~24 h | not | 0.25 µM | Robust concentration-dependent degradation | did not promote the degradation | possible modest hook effect
